{"source": "patent US10682361B2", "about": "“Sustained release bimatoprost, bimatoprost analogs, prostamides and prostaglandins for fat reduction” (ALLERGAN, INC., priority 2013, dated 2020)", "origin": "cited, not measured here", "key": {"fat": {"test_system": "fat", "conditions": "topical administration"}, "adipocytes": {"test_system": "adipocytes", "conditions": "topical administration"}}, "data": [{"smiles": "CCNC(=O)CCC/C=C\\C[C@@H]1[C@@H](/C=C/[C@@H](O)CCc2ccccc2)[C@H](O)C[C@@H]1O", "note": "[bimatoprost]", "values": [{"measurement": "clinical fat reduction", "setting": "fat", "value": "clinical evidence of fat reduction"}, {"measurement": "effect on adipocytes in animal models", "setting": "adipocytes", "value": "effectively prevent apidocyte formation and maturation and to atrophy adipocytes"}]}]}
